The results in this text go back to article PMC5048338, “Discovery of 4,6-disubstituted pyrimidines as potent inhibitors of the heat shock factor 1 (HSF1) stress pathway and CDK9” (Medchemcomm, 2016).

Structures are written as SMILES.

One experiment relates to HSF1-stress pathway. The experiment is described as follows: ArrayScan HSP72 protein assay (HSF1-stress pathway inhibition, 17-AAG induced).
A further experiment has as its target T1, CDK6/cyclin D3 (Homo sapiens, UniProt Q00534).
T1 construct: purchased EMD Millipore screening panel (now Eurofins)
The experiment is described as follows: EMD Millipore (Eurofins) CDK panel. The following applies: EMD Millipore screening panel, N = 1. Type of experiment: biochemical. How it is done:
(§1) Therefore 4,6-pyrimidine 3 was submitted to a EMD Millipore CDK panel to assess potency across the selected CDK family members (Table 3). Modest activity was observed against several CDKs; […]. […]. page 4: […]
(§2) mM Mg Acetate and […] (specific activity approx. 500 cpm/pmol, concentration as required). The reaction is initiated by the addition of the MgATP mix. After incubation for 40 minutes at room temperature, the reaction is stopped by the addition of 3% phosphoric acid solution. 10 μL of the reaction is then spotted onto a P30 filtermat and washed three times for 5 minutes in 75 mM phosphoric acid and once in methanol prior to drying and scintillation counting. […]
(§3) , 10 mM MgAcetate and […]
(§4) (specific activity approx. 500 cpm/pmol, concentration as required). The reaction is initiated by the addition of the MgATP mix. After incubation for 40 minutes at room temperature, the reaction is stopped by the addition of 3% phosphoric acid solution. 10 μL of the reaction is then spotted onto a P30 filtermat and washed three times for 5 minutes in 75 mM phosphoric acid and once in methanol prior to drying and scintillation counting. […]

In the next experiment the target is T2, CDK7/cyclin H/MAT1 (Homo sapiens, UniProt P50613).
T2 construct: purchased EMD Millipore screening panel (now Eurofins)
T2 sequence (P50613 whole entry): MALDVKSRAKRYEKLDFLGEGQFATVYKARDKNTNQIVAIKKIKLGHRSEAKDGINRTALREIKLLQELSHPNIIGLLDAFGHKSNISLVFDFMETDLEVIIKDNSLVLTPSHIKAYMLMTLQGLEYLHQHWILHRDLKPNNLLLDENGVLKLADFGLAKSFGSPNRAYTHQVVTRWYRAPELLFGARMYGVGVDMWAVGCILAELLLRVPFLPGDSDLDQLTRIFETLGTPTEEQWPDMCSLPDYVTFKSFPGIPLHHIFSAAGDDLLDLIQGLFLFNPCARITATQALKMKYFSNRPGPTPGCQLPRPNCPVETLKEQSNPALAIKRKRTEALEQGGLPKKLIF
T2 sequence (P51946 whole entry partner): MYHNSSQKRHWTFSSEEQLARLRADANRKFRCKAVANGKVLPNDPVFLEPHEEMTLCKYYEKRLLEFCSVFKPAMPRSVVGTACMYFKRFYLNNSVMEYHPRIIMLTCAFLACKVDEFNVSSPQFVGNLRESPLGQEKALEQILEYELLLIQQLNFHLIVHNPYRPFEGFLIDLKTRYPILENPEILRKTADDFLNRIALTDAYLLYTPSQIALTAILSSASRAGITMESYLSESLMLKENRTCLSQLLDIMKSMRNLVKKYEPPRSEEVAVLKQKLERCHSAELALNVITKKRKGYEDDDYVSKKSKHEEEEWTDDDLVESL
T2 sequence (P51948 whole entry partner): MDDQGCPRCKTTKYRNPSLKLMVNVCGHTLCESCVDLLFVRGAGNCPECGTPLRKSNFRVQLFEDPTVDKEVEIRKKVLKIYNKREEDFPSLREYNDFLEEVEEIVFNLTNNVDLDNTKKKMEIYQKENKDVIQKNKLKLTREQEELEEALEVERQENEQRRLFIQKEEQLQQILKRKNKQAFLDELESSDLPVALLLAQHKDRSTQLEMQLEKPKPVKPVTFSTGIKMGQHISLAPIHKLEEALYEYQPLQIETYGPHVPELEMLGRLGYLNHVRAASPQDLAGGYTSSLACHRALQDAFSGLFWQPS
Description: EMD Millipore (Eurofins) CDK panel. It counts as biochemical. The following applies: EMD Millipore screening panel, N = 1. On the procedure:
as §1, §2, §3, §4

The next experiment addresses T3, CDK5/p35 (Homo sapiens, UniProt Q00535).
T3 construct: purchased EMD Millipore screening panel (now Eurofins)
The experiment is described as follows: EMD Millipore (Eurofins) CDK panel. Particulars: EMD Millipore screening panel, N = 1. Type of experiment: biochemical. How it is done: Therefore 4,6-pyrimidine 3 was submitted to a EMD Millipore CDK panel to assess potency across the selected CDK family members (Table 3). Modest activity was observed against several CDKs; […]. […]. page 4:
CDK5/p35 (h) is incubated with 8 mM MOPS pH 7.0, 0.2 mM EDTA, 0.1 mg/mL histone H1, 10 mM Mg Acetate and […] (specific activity approx. 500 cpm/pmol, concentration as required). The reaction is initiated by the addition of the MgATP mix. After incubation for 40 minutes at room temperature, the reaction is stopped by the addition of 3% phosphoric acid solution. 10 μL of the reaction is then spotted onto a P30 filtermat and washed three times for 5 minutes in 75 mM phosphoric acid and once in methanol prior to drying and scintillation counting. […]
as §3, §4

The target of experiment [1] is T4, CDK2/cyclinE (Homo sapiens, UniProt P24941). The experiment is described as follows: EMD Millipore (Eurofins) CDK panel. The following applies: read-out: CDK2/cyclin E IC50; EMD Millipore screening panel, N = 1.
Description: Eurofins CDK panel assay conditions
(§5) CDK1/cyclinB (h) is incubated with 8 mM MOPS pH 7.0, 0.2 mM EDTA, 0.1 mg/mL histone H1, 10 mM MgAcetate and [9-33P]-ATP (specific activity approx. 500 cpm/pmol, concentration as required). The reaction is initiated by the addition of the MgATP mix. After incubation for 40 minutes at room temperature, the reaction is stopped by the addition of 3% phosphoric acid solution. 10 μL of the reaction is then spotted onto a P30 filtermat and washed three times for 5 minutes in 75 mM phosphoric acid and once in methanol prior to drying and scintillation counting.
(§6) CDK2/cyclinE (h) is incubated with 8 mM MOPS pH 7.0, 0.2 mM EDTA, 0.1 mg/mL histone H1, 10
(§7) CDK3/cyclinE (h) is incubated with 8 mM MOPS pH 7.0, 0.2 mM EDTA, 0.1 mg/mL histone H1, 10 mM Mg Acetate and [9-33P]-ATP (specific activity approx. 500 cpm/pmol, concentration as
A further experiment addresses CDK3/cyclin E (Homo sapiens, UniProt Q00526). Description: EMD Millipore (Eurofins) CDK panel. Particulars: read-out: CDK3/cyclin E IC50; EMD Millipore screening panel, N = 1.
For the next experiment, the target named is T5, CDK9/cyclin T1 (Homo sapiens, UniProt P50750).
T5 construct: purchased EMD Millipore screening panel (now Eurofins)
T5 sequence (P50750 whole entry): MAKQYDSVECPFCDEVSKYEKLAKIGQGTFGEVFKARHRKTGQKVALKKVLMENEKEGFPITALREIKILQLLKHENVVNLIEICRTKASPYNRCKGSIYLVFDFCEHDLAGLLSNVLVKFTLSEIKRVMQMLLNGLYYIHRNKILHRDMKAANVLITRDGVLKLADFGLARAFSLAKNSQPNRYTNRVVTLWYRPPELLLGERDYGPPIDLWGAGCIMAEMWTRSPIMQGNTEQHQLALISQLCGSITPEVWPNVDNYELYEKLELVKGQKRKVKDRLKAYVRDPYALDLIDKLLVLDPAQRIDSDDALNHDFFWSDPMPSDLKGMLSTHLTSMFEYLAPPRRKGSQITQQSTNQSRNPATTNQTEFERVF
T5 sequence (O60563 whole entry partner): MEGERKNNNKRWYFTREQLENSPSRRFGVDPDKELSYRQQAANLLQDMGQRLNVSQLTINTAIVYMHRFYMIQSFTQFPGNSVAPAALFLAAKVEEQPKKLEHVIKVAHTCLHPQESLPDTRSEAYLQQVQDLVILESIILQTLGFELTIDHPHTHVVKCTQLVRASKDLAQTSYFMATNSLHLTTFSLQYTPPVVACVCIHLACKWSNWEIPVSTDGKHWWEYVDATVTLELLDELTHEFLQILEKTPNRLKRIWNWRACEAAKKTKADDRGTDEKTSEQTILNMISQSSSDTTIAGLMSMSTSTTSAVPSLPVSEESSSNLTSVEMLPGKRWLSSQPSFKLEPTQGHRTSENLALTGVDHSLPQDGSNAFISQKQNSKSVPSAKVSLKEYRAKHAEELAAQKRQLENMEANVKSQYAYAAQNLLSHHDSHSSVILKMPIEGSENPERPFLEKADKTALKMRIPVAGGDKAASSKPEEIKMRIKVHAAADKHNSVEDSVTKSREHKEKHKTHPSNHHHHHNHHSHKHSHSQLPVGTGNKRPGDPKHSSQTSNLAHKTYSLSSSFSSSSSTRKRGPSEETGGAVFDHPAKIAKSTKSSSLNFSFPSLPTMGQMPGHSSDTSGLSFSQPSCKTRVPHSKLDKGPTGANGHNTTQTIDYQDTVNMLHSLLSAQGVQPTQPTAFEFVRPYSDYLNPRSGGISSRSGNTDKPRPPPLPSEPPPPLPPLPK
Description: EMD Millipore (Eurofins) CDK panel. Type of experiment: biochemical. On the procedure: as §1, §2
CDK9/cyclinT1 (h) is incubated with 8 mM MOPS pH 7.0, 0.2 mM EDTA, 100 μM […]
as §3, §4

The next experiment has as its target CDK1/cyclin B (Homo sapiens, UniProt P06493). The experiment is described as follows: EMD Millipore (Eurofins) CDK panel. The following applies: read-out: CDK1/cyclin B IC50; EMD Millipore screening panel, N = 1.
In experiment [2] the target is T4, CDK2/cyclinE. The experiment is described as follows: CDK2 enzyme assay: off-chip mobility shift assay. It counts as biochemical. Set-up: purchased Upstate/Millipore. On the procedure:
CDK2 enzyme assay: Off-chip Mobility SHIFT Assay
All reagents were purchased from Sigma-Aldrich unless otherwise specified. Inhibition of CDK2/cyclinE activity was quantified using an off-chip incubation, mobility shift assay, which uses a microfluidic chip (Caliper Life Sciences) to measure the conversion of a fluorescent peptide substrate to phosphorylated product. An Off-chip Mobility Shift Chip with 12 sippers (Caliper Life Sciences) was prepared for use according to the manufacturer’s instructions using Coating Reagent #3 (Caliper Life Sciences). The off-chip incubation was carried out in white, 384-well, flat bottom, low volume assay plates (Greiner). 5 µL peptide mix (1.5 µM substrate peptide (fluorescein-QSPKKG-CONH2, Bachem) and 90 µM ATP in kinase base buffer (50 mM HEPES, pH7.5 (Calbiochem), 0.06% CHAPSO)) were added to each well of the prepared compound plates which contained 120 nL compound stock solution per well. The reaction was then initiated by the addition of 6 µL enzyme mix (1.0 nM CDK2/cyclin E (Upstate/Millipore), 1.0 mM DTT and 5.0 mM MgCl2 in kinase base buffer). After incubation for 60 min at room temperature, each reaction was terminated by the addition of 10µL of stop solution containing 100 mM HEPES pH 7.5 (Calbiochem), 0.033% Brij-35, 0.22% Coating Reagent #3 (Caliper Life Sciences), 44 mM EDTA and 5 % DMSO. Reaction products were analysed using a Caliper LabChip LC3000 instrument and peak height was used to calculate percentage conversion of substrate to product.
For compound response testing, a 12 point compound concentration range was used. Compounds were acoustically dosed (Echo 555; Labcyte) into assay-ready plates using 11 half log intervals from 100 μM to […] plus a 12th point at 0.01 μM. Each well was backfilled with the required volume up to 120 nL of 100% DMSO to ensure a final 1% v/v DMSO concentration in the assay. In addition to the compound test wells, each plate carried maximum and minimum controls. Staurosporine at 10 μM was used to inhibit CDK2 activity for the minimum control. As a maximum control, 120 nL pure DMSO was added to the wells. Each plate contained at least 11 randomly distributed maximum and minimum controls. After the addition of compounds to the assay plates, the assay was performed as detailed above. Percentage conversion of substrate to product was used to calculate the effect of each compound on the kinase activity of CDK2/cyclinE. Enzyme inhibition model 3, non-linear curve fit analysis within OriginLab™ software was used to fit dose response curves and estimate the […]
concentration of compound required to reduce the enzyme activity to 50% of the conversion calculated from an average of the maximum controls.
Cell-based ELISA (Cellisa) for HSP72 expression
To follow HSP72 protein expression, a product of HSF1 transcriptional activity, Cellisa was developed. Cells (5-8x10^4cells/ml) were seeded into 96-well plates and incubated at 37 °C for 48 h.
Compounds were then added at a range of concentrations and incubated for 1 h before addition of 17-AAG (250 nM). Cells were then incubated for 18 h. The medium was removed and cells were fixed with fixing solution (4% paraformaldehyde, 0.3% TritonX-100 in PBS) for 30 min at 4 °C. The plates were then washed with 0.1% Tween-20/deionised water before blocking with 5% milk for 30 min at 37 °C. After washing the plates, HSP72 antibody (SPA-810, Enzo Life) was added for 1.5 h at 37 °C.
Following 4 x washes, the plates were incubated with europium-labelled anti-mouse antibody (0.6ug/ml) in Delfia assay buffer (Perkin Elmer) for 1 h at 37 °C. After washing the plates, Delfia enhancement solution was added, shaken for 10 min before reading in the Envision plate reader (Perkin-Elmer) with excitation at 340 nm and emission at 615 nm. The plates were washed again before protein determination using the BCA assay. The europium counts were normalised for the amount of protein in each well. The 50% inhibitory concentration value of the compound was then calculated and presented. […]

T1 sequence (Q00534 whole entry): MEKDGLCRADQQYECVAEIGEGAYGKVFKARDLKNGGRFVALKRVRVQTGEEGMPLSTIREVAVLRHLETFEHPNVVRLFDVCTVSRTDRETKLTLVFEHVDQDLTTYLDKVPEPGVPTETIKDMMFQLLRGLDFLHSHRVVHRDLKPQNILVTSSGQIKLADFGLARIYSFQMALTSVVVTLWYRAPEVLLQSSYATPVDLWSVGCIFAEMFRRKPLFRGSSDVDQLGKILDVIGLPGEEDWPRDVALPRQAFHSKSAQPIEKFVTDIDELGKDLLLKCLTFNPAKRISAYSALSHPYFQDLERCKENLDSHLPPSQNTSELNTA
T1 sequence (P30281 whole entry partner): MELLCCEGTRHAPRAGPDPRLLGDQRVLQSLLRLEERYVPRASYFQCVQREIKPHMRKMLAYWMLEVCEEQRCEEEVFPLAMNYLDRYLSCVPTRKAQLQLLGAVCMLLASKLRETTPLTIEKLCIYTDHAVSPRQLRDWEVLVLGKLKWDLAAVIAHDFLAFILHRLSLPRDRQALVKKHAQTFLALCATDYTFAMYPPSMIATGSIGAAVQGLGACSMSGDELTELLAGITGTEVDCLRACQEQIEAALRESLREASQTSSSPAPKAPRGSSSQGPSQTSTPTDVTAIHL
T3 sequence (Q00535 whole entry): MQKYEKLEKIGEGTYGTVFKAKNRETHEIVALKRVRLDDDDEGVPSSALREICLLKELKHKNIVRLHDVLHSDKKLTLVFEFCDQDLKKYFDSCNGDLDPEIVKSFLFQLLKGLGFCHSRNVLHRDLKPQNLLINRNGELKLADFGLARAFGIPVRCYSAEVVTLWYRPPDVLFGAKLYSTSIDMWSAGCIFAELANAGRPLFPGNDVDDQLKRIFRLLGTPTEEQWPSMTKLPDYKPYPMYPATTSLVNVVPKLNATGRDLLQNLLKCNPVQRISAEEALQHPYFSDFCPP
T3 sequence (Q15078 whole entry partner): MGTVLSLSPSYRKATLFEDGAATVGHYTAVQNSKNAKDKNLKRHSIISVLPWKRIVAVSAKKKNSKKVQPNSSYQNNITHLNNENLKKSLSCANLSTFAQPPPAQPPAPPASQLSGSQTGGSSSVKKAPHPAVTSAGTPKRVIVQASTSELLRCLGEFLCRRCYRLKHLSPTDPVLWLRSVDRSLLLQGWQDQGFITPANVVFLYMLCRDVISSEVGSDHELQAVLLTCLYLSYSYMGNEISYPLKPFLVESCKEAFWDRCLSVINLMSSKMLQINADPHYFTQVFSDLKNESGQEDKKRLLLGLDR
CDK1/cyclin B, sequence (P06493 whole entry): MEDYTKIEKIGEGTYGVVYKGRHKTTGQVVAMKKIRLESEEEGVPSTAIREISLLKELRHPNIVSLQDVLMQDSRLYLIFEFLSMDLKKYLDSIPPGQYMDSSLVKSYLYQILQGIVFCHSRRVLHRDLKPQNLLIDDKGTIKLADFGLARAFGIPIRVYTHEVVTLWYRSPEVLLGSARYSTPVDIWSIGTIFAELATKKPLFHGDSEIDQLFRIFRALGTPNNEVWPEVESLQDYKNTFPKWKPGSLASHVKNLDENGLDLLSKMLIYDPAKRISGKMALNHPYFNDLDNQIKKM
CDK1/cyclin B, sequence (P14635 whole entry partner): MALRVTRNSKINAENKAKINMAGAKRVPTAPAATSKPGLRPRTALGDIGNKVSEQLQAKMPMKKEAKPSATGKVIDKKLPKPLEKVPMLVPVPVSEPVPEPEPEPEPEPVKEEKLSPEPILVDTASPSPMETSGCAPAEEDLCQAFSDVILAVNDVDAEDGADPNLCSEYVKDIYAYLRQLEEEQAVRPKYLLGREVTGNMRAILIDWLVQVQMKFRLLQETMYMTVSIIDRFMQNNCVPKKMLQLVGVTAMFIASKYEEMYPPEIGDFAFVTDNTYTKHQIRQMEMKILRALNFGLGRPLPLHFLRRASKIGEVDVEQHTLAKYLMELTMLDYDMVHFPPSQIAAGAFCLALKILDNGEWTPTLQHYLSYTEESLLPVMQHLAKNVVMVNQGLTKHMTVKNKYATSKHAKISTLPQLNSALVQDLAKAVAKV
Description for CDK1/cyclin B: Eurofins CDK panel assay conditions
as §5, §6, §7
Description for CDK3/cyclin E: Eurofins CDK panel assay conditions
as §5, §6, §7
Description for HSF1-stress pathway: To discover inhibitors of the HSF1-stress pathway, we employed an automated cellular imaging and analysis method (ArrayScan™) that quantifies the ability of a compound to suppress the expression of the HSF1-mediated inducible HSP70 isoform, HSP72.
U2OS cells (1500 per well) were plated in 40 μL of DMEM media (containing 10% fetal calf serum and 2 mM Glutamax T-1) in costar 384-well plates and left overnight at 37 °C and 5% CO2 to adhere.
treatment with compound, all wells except min wells were dosed with 17AAG diluted in DMSO (10
°C and 5% CO2. The following day the cells were fixed by addition of 20 μL/well of 12% formaldehyde with 1:1700 Hoechst in PBS for 10 min at room temperature. The fixative was decanted and the wells washed once with 50 μL of phosphate buffer saline (PBS).The PBS was subsequently aspirated, and the cells were permeabilized by addition of 20 μL/well of PBS 0.3% Triton X-100 for 20 min at room temperature. The wells were then washed with 80 μL of PBS prior to the addition of 20 μL of combined primary and secondary antibodies diluted in PBS (1:10 000 mouse anti-Hsp72
11001 molecular probes), for 2 h at room temperature. The wells were then washed with 50 μL of PBS. Finally, 50 μL of PBS was added to each well, and the plates were sealed ready to analyze.
Analysis was carried out using a Cellomics Arrayscan VTI instrument and the Cellomics Arrayscan Compartmental Analysis algorithm to measure cellular levels of HSP72.
100 μM to 0.1 μM plus a 12th point at 0.01 μM. Each well was backfilled with the required volume up to 120 nL of 100% DMSO to ensure a final 1% v/v DMSO concentration in the assay. In addition to the compound test wells, each plate carried maximum and minimum controls. Staurosporine at 10 μM was used to inhibit CDK2 activity for the minimum control. As a maximum control, 120 nL pure DMSO was added to the wells. Each plate contained at least 11 randomly distributed maximum and minimum controls. After the addition of compounds to the assay plates, the assay was performed as detailed above. Percentage conversion of substrate to product was used to calculate the effect of each compound on the kinase activity of CDK2/cyclinE. Enzyme inhibition model 3, non-linear curve fit analysis within OriginLab™ software was used to fit dose response curves and estimate the

With `CN(C)CCOc1ccc(Nc2cc(-n3cnc4ccccc43)ncn2)nc1` [Compound 3], the IC50 with HSF1-stress pathway (Homo sapiens, U2OS, read-out: HSF1 IC50) was 0.08 µM; at CDK6/cyclin D3, 1.3 µM; against CDK7/cyclin H/MAT1 it was 1.1 µM; at CDK5/p35, 0.61 µM; on CDK2/cyclinE [1], 2.8 µM; on CDK3/cyclin E it was 3.5 µM. For the same compound, the IC50 against CDK9/cyclin T1 (EMD Millipore screening panel, N = 1) turned out to be 0.014 µM; on CDK1/cyclin B it was 1.8 µM; on CDK2/cyclinE [2] (biochemical, CDK2/cyclinE, average of two determinations), 0.58 µM. Moreover, the “fold more potent in the HSF1-stress pathway assay compared with phenyl compound 2” value in the experiment on HSF1-stress pathway (relative to compound 2) is “approximately 15 fold”. Also, at CDK9/cyclin T1 (ratio between CDK2/7/9, CDK9 = 1, EMD Millipore Screening Panel), the “ratio of activity CDK9/CyclinT1” value stood at 1. For the same compound, the “fold more active against CDK2 compared with phenyl compound 2” value on CDK2/cyclinE [2] (relative to compound 2) came out at 35 fold.
